Source: article PMC9435431, “Novel chemical entities inhibiting Mycobacterium tuberculosis growth identified by phenotypic high-throughput screening” (Scientific Reports, 2022)
In brackets after ≈: the same amount, converted by molar mass. Entries after “also recorded” stand apart in the source; their conditions may differ. Where two headings read alike, the source gives them in different places.

What was measured:
[1] = tested on: wild-type M. tuberculosis; assay: microbe, parasite or virus in culture; assay type: cell-based, Mycobacterium tuberculosis; conditions: for MIC: Mycobacterium tuberculosis
in vitro [2] = assay type: in vitro ADME, human; conditions: for CLint scaled at 0.5 µM: human, microsomes
Method: (§1) Compounds (0.5 µM) were incubated with 0.25 mg/mL liver microsomal proteins at pH 7.4 at 37 °C. Reactions were initiated with […] and samples taken at 0, 5, 10, 15, 20 and 30 min. The reaction was stopped by addition of 95% ACN/5% MeOH containing an internal standard. Samples were combined in compound groups of six pre-sorted by mono molecular weight and analyzed by LC/MS/MS. The peak area ratios (analyte peak area/IS peak area) were converted to % remaining using the area ratio at time 0 as 100%. The. half-life (T ½) and intrinsic clearance (mCLint) were calculated.

in vitro [3] = assay type: in vitro ADME; conditions: mouse, microsomes, pH 7.4
Method: as §1

[4] = mouse, in vivo
in vivo = conditions: female, Balb/c, mouse; for AUC: po, 30 mg/kg
[5] = Critical aggregation concentration; assay type: physicochemical
in vitro [6] = conditions: PAMPA
M. tuberculosis = assay: microbe, parasite or virus in culture; assay type: cell-based; conditions: Mycobacterium tuberculosis, read-out: MIC on solid medium

| Structure (SMILES) | anti-tubercular activity (in words) [1] | MIC ([1]; 120 h, read-out: MIC) [µM] | CLint scaled at 0.5 µM (in vitro [2]; pH 7.4, human Clint) [mL/min/kg] | CLint scaled at 0.5 µM (in vitro [3]) [mL/min/kg] | absorption (in words) [4] | half-life (in vivo; iv) [min] | AUC (in vivo) [ng·h/mL] | MIC ([1]; read-out: MIC) [µM] | CLint scaled at 0.5 µM (in vitro [2]; pH 7.4, in vitro human unbound microsomal clearance Clint,u) [mL/min/kg] | critical aggregation concentration [5] [µM] | Oral AUC ([4]; female, Balb/c, po, 30 mg/kg) [ng·h/mL] | Papp (in vitro [6]) [×10⁻⁶ cm/s] | MIC ([1]; Table 5, read-out: Wild-type MIC) [µM] | microsomal clearance / stability (in words) (in vitro [2]; human microsomes) | MIC (M. tuberculosis) [µM] |
| --- | --- | --- | --- | --- | --- | --- | --- | --- | --- | --- | --- | --- | --- | --- | --- |
| O=C(NCCc1cc(Br)c(O)c(Br)c1)C1(c2ccc(F)cc2)CCC1 [PCB-31, N-(3,5-dibromo-4-hydroxyphenethyl)-1-(4-fluorophenyl)cyclobutane-1-carboxamide] | good anti-TB activity; also recorded: sub-micromolar | 0.94 ± 0.23 (≈ 0.443 µg/mL) | 128 | 527 | solubility-limited absorption | 12 | 259 | – | – | – | – | – | – | – | – |
| O=C(NCCc1cc(Br)c(O)c(Br)c1)C1(c2ccccc2)CCC1 [PCB-2, N-(3,5-dibromo-4-hydroxyphenethyl)-1-phenylcyclobutane-1-carboxamide] | – | 3.4 ± 0.6 (≈ 1.54 µg/mL) | 427 | 1920 | – | – | 58 | 3.4 (≈ 1.54 µg/mL) | 593 | 3.3 | 58 | 87 | – | – | – |
| O=C(NCCc1cccc(Br)c1)C1(c2ccc(F)cc2)CCC1 [PCB-19, N-(3-bromophenethyl)-1-(4-fluorophenyl)cyclobutane-1-carboxamide] | – | 2.3 ± 0.7 (≈ 0.865 µg/mL) | 3920 | – | – | – | – | – | – | – | – | – | 2.3 (≈ 0.865 µg/mL) | very poor microsomal stability | 0.63 (≈ 0.237 µg/mL) |
